The values below come from patent US20230011800A1, “[…] CHIP FOR […] AND TOXICITY ON NERVE, AND USE THEREOF” (CHA UNIVERSITY INDUSTRY-ACADEMIC COOPERATION FOUNDATION, priority 2019, published 2023).

“Also recorded” adds a separate entry of the source.

Type in all cases: cell-based
Data set [1] concerns neurons differentiated from human stem cells (hPSCs) (Neurosight-S). The data set can be described thus: MeHg neurotoxicity on neurons cultured alone in the nerve chip, immunostaining with Tuj1 and MAP2. The note with it: 1 μM, 5 μM and 10 μM MeHg, 3 hours. The protocol:
(§1) It was assessed whether neurotoxicity can be evaluated by a noticeable biomimetic nerve chip of the present invention in which an in vivo environment similar to physiological characteristics of the nervous system was constructed. First, methylmercury chloride (MeHg), a representative environmental toxic substance known to pass through the brain barrier regardless of a structure of the brain barrier and to have neurotoxicity, was selected as a toxic substance for treatment. The neurotoxicity evaluation was conducted by treating a chip having only neurons cultured and a chip having neurons and astrocytes co-cultured, with MeHg at various concentrations (0 μM, 1 μM, 5 μM, 10 μM) for 3 hours and then examining the cell response changes according to the MeHg time and concentration through real-time live cell imaging and immunocytochemistry, and then the functionality of the biomimetic nerve chip as a drug toxicity evaluation platform was assessed (FIGS. 8 to 10).
The cell types can be distinguished by morphological characteristics of cells, but Calcein-AM targets all living cells regardless of the type of cells and thus cannot clearly identify the types of cells. The present inventors re-examined whether the neurons were damaged at the same extent by MeHg, through immunostaining using Tuj1 and MAP2 antibodies targeting only neurons (FIG. 8C).

In data set [2] the test system is astrocytes differentiated from human stem cells (hPSCs). Nature of the data set: MeHg toxicity on astrocytes cultured in the nerve chip, Calcein-AM live cell imaging.
Source text: Astrocytes, differentiated from human stem cells (hPSCs), were secured by direct differentiation. Human stem cells (hPSCs) were maintained through culture and passage by using TeSr-E8 medium in a Matrigel-coated culture dish, and for differentiation into neurons, neural progenitor cells (NPCs) were first prepared. The stem cell colonies were detached using […], and then embryoid bodies (EBs) were formed using DMEM/F12 medium containing 20% knock out serum replacement, 1% nonessential amino acids, 55 μM β-mercaptoethanol, 10 μM SB431542, and 5 μM DMH1, and then again attached to a Matrigel-coated culture dish to form neural rosettes in DMEM/F12 medium containing 1% N2 supplement, […] insulin, and 20 ng/mL basic fibroblast growth factor. Only the center of the rosettes was separated using a thinly drawn Pasteur pipette, and then cultured in DMEM/F12 medium containing 1% N2 supplement, 20 ng/mL basic fibroblast growth factor, and 20 ng/mL epidermal growth factor to secure NPCs. The secured NPCs were again attached to a Matrigel-coated culture dish at a density of 2.8×10^3 cells/cm, and cultured in DMEM/F12 medium containing 1% N2 supplement, 2% vitamin A-removed B27 supplement, 10 ng/mL bone morphogenetic protein-4, 10 ng/mL ciliary neurotrophic factor, and 10 ng/mL leukemia inhibitory factor to thereby obtain finally differentiated astrocytes. […]
as §1, with “First, methylmercury chloride (MeHg), a representative environmental toxic substance known to pass through the brain barrier regardless of a structure of the brain barrier and to have neurotoxicity, was selected as a toxic substance for treatment.” left out

Data set [3] has the same test system. Nature of the data set: MeHg toxicity on astrocytes in the nerve chip, immunostaining with GFAP and S100B. The note with it: 3 hours. On the procedure: as §1
On the basis of the assertion that this S100B increase is associated with CNS damage, immunostaining was performed using GFAP and S100B, which were used as markers for brain damage due to metal-induced neurotoxicity, in order to identify astrocytes and examine the response of astrocytes in the MeHg detection (FIG. 9C).

In data set [4] the test system is neurons differentiated from human stem cells (hPSCs) (Neurosight-S). The data set can be described thus: MeHg neurotoxicity on neurons cultured alone in the biomimetic nerve chip, Calcein-AM live cell imaging. The protocol: Neurons differentiated from human stem cells (hPSCs) were secured through neurons (Neurosight-S) by NEXEL. A stock was thawed and injected immediately into the chip. The neurons were prepared at an appropriate concentration for injection of 15×10^4 cells/6 μL, loaded into the neuron inlet included in the nerve chip of the present invention, and injected into the neuron chamber passing through the neuron channel. The bottom of the neuron chamber was coated with Matrigel, which was three times more concentrated than usual, for stable attachment in the chip, and the neurons were cultured in Neurosight-S medium supplemented with Supplement (100×) for 3 days during which neurites can be formed.
(§2) The injection of cells was conversely conducted. Human stem cell-derived neurons (Neurosight-S) were preferentially injected, wherein the neurons were prepared at an appropriate concentration for injection of 15×10^4 cells/6 μL, load into the neuron inlet, and injected into the neuron chamber. Human stem cell-derived astrocytes were prepared at an appropriate concentration for injection of 15×10^4 cells/6 μL, and nozzles of syringes each carrying 30 μL were connected to the astrocyte inlets, and the astrocytes were injected into the two astrocyte chambers by using a syringe pump.
as §1
Most of the neurons in the control group formed neurite networks while having intact cell bodies and neurites.
The MeHg treatment concentrations were set to 1 μM, 5 μM, and 10 μM, and similarly, the viability of neurons was examined in real time through Calcein-AM.

Data set [5] has as its system neurons co-cultured with astrocytes (human stem cell-derived). Nature of the data set: MeHg neurotoxicity on neurons co-cultured with astrocytes in the nerve chip (astrocyte neuroprotection), Calcein-AM and MAP2. On the procedure:
as §2, §1
Finally, it was examined whether there was a neuroprotective function from the neurotoxicity of MeHg depending on the presence or absence of astrocytes inside the biomimetic nerve chip. MeHg treatment was conducted under two conditions in which […] were cultured alone and neurons and astrocytes were co-cultured, and the cell viability was evaluated in real time according to the time and concentration changes by using Calcein-AM (FIGS. 10A to 10C). […]

The mark [6] stands for this setting: as the concentration of MeHg increased (1, 5, 10 μM).
[7] abbreviates: in the presence of astrocytes, MeHg 1, 5, 10 μM, 3 hours.

Take `[CH3][Hg][Cl]` [MeHg, methylmercury chloride]: the “damage to neurons, immunostaining Tuj1 and MAP2” value in data set [1] is “the damage to cells increased as the concentration increased”. The “degree of morphological change of astrocytes according to concentration, Calcein-AM” value in data set [2] (MeHg 1, 5, 10 μM, 3 hours) is “no significant difference in the degree of morphological change due to cell aggregation regardless of the concentration”. Also, the “cell viability of astrocytes, Calcein-AM” value in data set [2] (MeHg 1, 5, 10 μM, up to 3 hours) is “no decrease in cell viability was observed”. Moreover, the “morphological changes of astrocytes over time, Calcein-AM” value in data set [2] (MeHg, 1-hour intervals for 3 hours) is listed as “morphological changes of astrocytes due to cell aggregation were observed over time”. Also, in data set [3] (setting [6]), the “GFAP expression signal in astrocytes” value is “the GFAP signal decreased” and the “S100B expression signal in astrocytes” value was “the S100B signal increased”. Moreover, the “viability of astrocytes, immunostaining” value in data set [3] (astrocytes, MeHg 1, 5, 10 μM) is reported as “the viability of astrocytes was not changed”. Moreover, the “viability and morphology of neurons (neurites), Calcein-AM” value in data set [4] (1 μM MeHg, after 3 hours) was “some neurites endured neurotoxicity of MeHg without damage to maintain the state thereof”. Also, the “viability and morphology of neurons (neurites), Calcein-AM” value in data set [4] (5 μM MeHg, after 3 hours) is “the neurites almost completely disappeared, leaving only fragmented fragments and only a form of cell bodies; also recorded: neurites disappeared and only the cell bodies remained”. Also, the “viability and morphology of neurons (neurites), Calcein-AM” value in data set [4] (5 μM MeHg, until 2 hours after treatment) was “the neurites maintained the state thereof with deterioration little by little without any significant change”. In data set [4] (10 μM MeHg, 1-hour intervals for 3 hours), the “Calcein-AM signal of neurons over time” value is “most of the Calcein-AM signals started to rapidly decrease 2 hours after MeHg treatment”. In addition, the “viability and morphology of neurons (neurites, cell bodies), Calcein-AM” value in data set [4] (10 μM MeHg, after 3 hours) is given as “even the fluorescence signal of the remaining cell bodies was greatly reduced”. In data set [5] (setting [7]), the “Calcein-AM signal of neurons according to concentration” value is given as “maintained without any decrease” and the “MAP2 signal of neurons according to concentration” value is “maintained without any decrease”. Moreover, the “viability and morphological changes of neurons over time, Calcein-AM” value in data set [5] (neurons co-cultured with astrocytes, 10 μM MeHg, until 3 hours after treatment) is “no significant changes were observed, except for a few strands of neurites that partially disappeared”.
